Where two headings read alike, the source gives them in different places.
Biological target: T1, SIRT1 (Homo sapiens, UniProt Q96EB6)
T1 sequence (Q96EB6 1-747): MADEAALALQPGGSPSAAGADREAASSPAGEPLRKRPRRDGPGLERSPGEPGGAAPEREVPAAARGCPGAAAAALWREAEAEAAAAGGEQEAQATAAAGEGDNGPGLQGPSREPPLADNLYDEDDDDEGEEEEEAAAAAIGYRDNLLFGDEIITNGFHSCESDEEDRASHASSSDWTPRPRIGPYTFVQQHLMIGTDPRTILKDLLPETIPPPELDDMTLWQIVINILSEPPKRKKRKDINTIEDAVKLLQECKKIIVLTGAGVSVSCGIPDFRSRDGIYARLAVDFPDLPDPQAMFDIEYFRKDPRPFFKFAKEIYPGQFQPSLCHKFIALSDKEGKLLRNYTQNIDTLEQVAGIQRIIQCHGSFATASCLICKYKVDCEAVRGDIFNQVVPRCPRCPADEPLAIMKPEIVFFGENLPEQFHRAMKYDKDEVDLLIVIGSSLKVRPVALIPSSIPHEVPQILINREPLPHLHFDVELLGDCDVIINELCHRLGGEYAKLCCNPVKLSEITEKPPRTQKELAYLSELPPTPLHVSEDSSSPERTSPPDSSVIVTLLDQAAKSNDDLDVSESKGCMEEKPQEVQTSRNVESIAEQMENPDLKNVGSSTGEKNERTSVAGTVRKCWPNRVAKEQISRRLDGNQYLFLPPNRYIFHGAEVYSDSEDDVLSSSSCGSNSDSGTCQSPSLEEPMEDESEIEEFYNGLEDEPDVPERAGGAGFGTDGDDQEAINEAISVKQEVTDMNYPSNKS
Assay: Trp mass spectrometry assay (SIRT1 activation)
Format: biochemical
Details: for Emax: percent maximum fold activation of SIRT1, read-out: Tryp % Fold Act
In short: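 N-His-tagged SIRT1 (10 nM), expressed in E. coli, was incubated with 0.5 μM Ac-RHKK(Ac)W-NH2 peptide and 120 μM NAD+ for 25 min at 25 °C in HEPES pH 7.5 with […]. The reaction was stopped with formic acid and O-acetyl-ADP-ribose or deacetylated peptide was quantified by mass spectrometry. Results are given as EC1.5 and percent maximal activation relative to DMSO control.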

[1] = Trp mass spectrometry assay, EC1.5 = concentration of test compound that results in 150% activation of SIRT1
[2] = concentration of test compound that results in 150% activation of SIRT1, Trp peptide substrate
[3] = Trp mass spectrometry assay, EC1.5 = concentration giving 150% activation of SIRT1

| Tryp AVG EC1.5 (μM) [1] | Emax (Trp mass spectrometry assay) | Tryp AVG EC1.5 (μM) [2] | Emax (Trp peptide substrate) | Tryp AVG EC1.5 (μM) [3] | Compound |
| --- | --- | --- | --- | --- | --- |
| C (EC1.5>25 μM) | < 150% |  |  |  | O=C(Nc1ccccn1)N1c2nc(-c3ccccc3C(F)(F)F)ccc2N2CC[C@H]1C2 [Example 137] |
|  |  | B (EC1.5 1-25 μM) | ≥ 150% |  | COC(=O)N1CCCN(c2ccc3c(n2)N(C(=O)Nc2ccncn2)[C@H]2CCCN3C2)CC1 [Example 446] |
|  | ≥ 150% |  |  | A (EC1.5<1 μM) | C#Cc1ccc(NC(=O)N2c3nc(-c4cccc(C5(C(F)(F)F)N=N5)c4)ccc3N3CC[C@H]2C3)nc1 [Example 803] |
|  |  | B (EC1.5 1-25 μM) | ≥ 150% |  | CN(C)[C@H]1CCN(c2ccc3c(n2)N(C(=O)Nc2cccnc2)[C@H]2CCN3C2)C1 [Example 242] |
|  | ≥ 150% |  |  |  | O=C(Nc1ccnc(OC[C@H](O)CO)c1)N1c2nc(-c3cccc(Cl)c3)ccc2N2CC[C@H]1C2 [Example 66] |
| A (EC1.5<1 μM) | ≥ 150% |  |  |  | CC(=O)c1sc(NC(=O)N2c3nc(-c4cccc(C(F)(F)F)c4)ccc3N3CC[C@H]2C3)nc1C [Example 75] |
|  | ≥ 150% |  |  | A (EC1.5<1 μM) | CCC(=O)c1cccc(NC(=O)N2c3nc(-c4cccc(C(F)(F)F)c4)ccc3N3CC[C@H]2C3)c1 [Example 714] |
| A (EC1.5<1 μM) | ≥ 150% |  |  |  | O=C(Nc1cncc(F)c1)N1c2nc(-c3cccc(Cl)c3)ccc2N2CC[C@H]1C2 [Example 119] |
|  |  | C (EC1.5>25 μM) | < 150% |  | COc1cc(NC(=O)N2c3nc(-c4cncc(Cl)c4)ccc3N3CCC2CC3)ncn1 [Example 552] |
|  |  | B (EC1.5 1-25 μM) | ≥ 150% |  | Cc1cc(-c2ccc3c(n2)N(C(=O)Nc2ccncn2)[C@H]2CCN3C2)ccn1 [Example 468] |
| B (EC1.5 1-25 μM) | ≥ 150% |  |  |  | O=C(Nc1cccnn1)N1c2nc(-c3cccc(C(F)(F)F)c3)ccc2N2CCC1CC2 [Example 171] |
|  |  | A (EC1.5<1 μM) | ≥ 150% |  | O=C(Nc1cncc(F)c1)N1c2nc(-c3ccnc(N4CC[C@H](F)C4)c3)ccc2N2CC[C@H]1C2 [Example 475] |
|  |  | A (EC1.5<1 μM) | ≥ 150% |  | COc1cncc(NC(=O)N2c3nc(-c4ccnc(C)c4)ccc3N3CC[C@H]2C3)n1 [Example 499] |
|  |  | A (EC1.5<1 μM) | ≥ 150% |  | O=C(Nc1cnccn1)N1c2nc(N3CCCC(C(F)(F)F)C3)ccc2N2CCC[C@H]1C2 (some centres unmarked) [Example 293] |
|  |  | B (EC1.5 1-25 μM) | ≥ 150% |  | COc1cc(NC(=O)N2c3nc(-c4cccc(N5CC[C@H](F)C5)c4)ccc3N3CC[C@H]2C3)ncn1 [Example 255] |
|  |  | A (EC1.5<1 μM) | ≥ 150% |  | O=C(Nc1ccncn1)N1c2nc(-c3cncc(C(F)(F)F)c3)ccc2N2CC[C@H]1C2 [Example 276] |
|  | ≥ 150% |  |  | A (EC1.5<1 μM) | O=C(Nc1cccc(-c2ccoc2)n1)N1c2nc(-c3cccc(C(F)(F)F)c3)ccc2N2CC[C@H]1C2 [Example 654] |
|  | ≥ 150% |  |  | B (EC1.5 1-25 μM) | CS(=O)(=O)c1cccc(-c2ccc3c(n2)N(C(=O)Nc2cccc(-c4cnco4)n2)[C@H]2CCN3C2)c1 [Example 715] |
|  | ≥ 150% |  |  | A (EC1.5<1 μM) | CC(C)(C)OC(=O)NCc1cnnn1-c1cccc(NC(=O)N2c3nc(-c4cccc(C(F)(F)F)c4)ccc3N3CC[C@H]2C3)c1 [Example 638] |
|  |  | A (EC1.5<1 μM) | ≥ 150% |  | O=C(Nc1cc(-c2cnco2)ccn1)N1c2nc(-c3cccc(C(F)(F)F)c3)ccc2N2CC[C@H]1C2 [Example 589] |
| B (EC1.5 1-25 μM) | ≥ 150% |  |  |  | N#Cc1cccc(-c2ccc3c(n2)N(C(=O)Nc2cccnc2)[C@@H]2CCCN3C2)c1 [Example 210] |
|  |  | A (EC1.5<1 μM) | ≥ 150% |  | O=C(Nc1cnccn1)N1c2nc(-c3cccc(C(F)(F)F)c3)ccc2N2CCC1CC2 [Example 472] |
|  | ≥ 150% |  |  | A (EC1.5<1 μM) | O=C(Nc1cccc(-c2cnco2)n1)N1c2nc(-c3cncc(C(F)(F)F)c3)ccc2N2C[C@@H](O)[C@H]1C2 [Example 703] |
|  | ≥ 150% |  |  | A (EC1.5<1 μM) | N=C(NCCN)c1ccc(NC(=O)N2c3nc(-c4cccc(C(F)(F)F)c4)ccc3N3CCC[C@H]2C3)cc1 [Example 792] |

| Tryp AVG EC1.5 (μM) [1] | Emax (Trp mass spectrometry assay) | Tryp AVG EC1.5 (μM) [2] | Emax (Trp peptide substrate) | Tryp AVG EC1.5 (μM) [3] | Compound |
| --- | --- | --- | --- | --- | --- |
|  |  | B (EC1.5 1-25 μM) | ≥ 150% |  | Cc1n[nH]cc1-c1ccc2c(n1)N(C(=O)Nc1ccccn1)[C@H]1CCN2C1 [Example 370] |
|  | ≥ 150% |  |  | A (EC1.5<1 μM) | O=C(Nc1ccccn1)N1c2nc(-c3cccc(C(F)(F)F)c3)ccc2N2CCC[C@H]1C2 [Example 820] |
|  | ≥ 150% |  |  |  | COc1cc(NC(=O)N2c3nc(-c4cccc(C(F)(F)F)c4)ccc3N3CC[C@H]2C3)nc(OC)n1 [Example 22] |
|  | ≥ 150% |  |  |  | O=C(Nc1cccnn1)N1c2nc(-c3cccc(F)c3)ccc2N2CC[C@H]1C2 [Example 58] |
|  |  | B (EC1.5 1-25 μM) | ≥ 150% |  | O=C(Nc1cnccn1)N1c2nc(-c3cncc(Cl)c3)ccc2N2CCC1CC2 [Example 550] |
|  | ≥ 150% |  |  |  | O=C(Nc1cc[nH]c(=O)n1)N1c2nc(-c3cccc(C(F)(F)F)c3)ccc2N2CC[C@H]1C2 [Example 82] |
| A (EC1.5<1 μM) | ≥ 150% |  |  |  | N#Cc1cccc(-c2ccc3c(n2)N(C(=O)Nc2cncc(F)c2)[C@H]2CCN3C2)c1 [Example 182] |
|  |  | B (EC1.5 1-25 μM) | ≥ 150% |  | O=C(Nc1cccnn1)N1c2nc(-c3cccc(N4CCOCC4)c3)ccc2N2CCC[C@H]1C2 [Example 539] |
|  | ≥ 150% |  |  |  | Cc1cnccc1NC(=O)N1c2nc(-c3cccc(C(F)(F)F)c3)ccc2N2CC[C@H]1C2 [Example 21] |
|  |  | B (EC1.5 1-25 μM) |  |  | O=C(Nc1cccnn1)N1c2nc(-c3cccnc3)ccc2N2CCC[C@H]1C2 [Example 457] |
|  | ≥ 150% |  |  | A (EC1.5<1 μM) | CC(C)(C)OC(=O)NCC#Cc1cc(NC(=O)N2c3nc(-c4cccc(C(F)(F)F)c4)ccc3N3CC[C@H]2C3)cc(-c2cnco2)c1 [Example 749] |
|  |  | B (EC1.5 1-25 μM) | ≥ 150% |  | Cc1ccc(-c2ccc3c(n2)N(C(=O)Nc2cncc(F)c2)[C@H]2CCN3C2)cn1 [Example 224] |
|  | ≥ 150% |  |  | A (EC1.5<1 μM) | O=C(Nc1cccc(-c2cnco2)c1)N1c2nc(-c3cccc(C(F)(F)F)c3)ccc2N2C[C@@H](O)[C@H]1C2 [Example 665] |
|  | < 150% |  |  | C (EC1.5>25 μM) | O=C(Nc1ccccn1)N1c2cc(-c3cccc(C(F)(F)F)c3)ccc2N2CC[C@H]1C2 [Example 785] |
|  |  | A (EC1.5<1 μM) | ≥ 150% |  | CS(=O)(=O)c1cncc(-c2ccc3c(n2)N(C(=O)Nc2cccnc2)[C@H]2CCCN3C2)c1 [Example 376] |
|  |  | A (EC1.5<1 μM) | ≥ 150% |  | O=C(Nc1ccccn1)N1c2nc(N3CCCC(C(F)(F)F)C3)ccc2N2CCC[C@H]1C2 (some centres unmarked) [Example 286] |
|  |  | C (EC1.5>25 μM) | < 150% |  | COc1cc(NC(=O)N2c3nc(-c4ccccc4C#N)ccc3N3CCC[C@H]2C3)ncn1 [Example 440] |
|  |  | B (EC1.5 1-25 μM) | ≥ 150% |  | N#Cc1cncc(-c2ccc3c(n2)N(C(=O)Nc2cncc(F)c2)[C@H]2CCCN3C2)c1 [Example 535] |
|  |  | A (EC1.5<1 μM) | ≥ 150% |  | O=C(Nc1ccc(F)cn1)N1c2nc(-c3cncc(F)c3)ccc2N2CCC[C@H]1C2 [Example 431] |
| A (EC1.5<1 μM) | ≥ 150% |  |  |  | O=C(Nc1cnccn1)N1c2nc(-c3cccc(Cl)c3)ccc2N2CC[C@H]1C2 [Example 101] |
| B (EC1.5 1-25 μM) | ≥ 150% |  |  |  | Cc1cc(C)nc(NC(=O)N2c3nc(N4CCCC(C(F)(F)F)C4)ccc3N3CC[C@H]2C3)c1 (some centres unmarked) [Example 213] |
| B (EC1.5 1-25 μM) | ≥ 150% |  |  |  | O=C(Nc1ccncn1)N1c2nc(C3CCCC(C(F)(F)F)C3)ccc2N2CC[C@H]1C2 (some centres unmarked) [Example 98] |
|  |  | B (EC1.5 1-25 μM) | ≥ 150% |  | Cc1cc(C)nc(NC(=O)N2c3nc(N4CCCC(C(F)(F)F)C4)ccc3N3CCC[C@H]2C3)c1 (some centres unmarked) [Example 287] |
|  |  | B (EC1.5 1-25 μM) | ≥ 150% |  | COc1ccc(-c2ccc3c(n2)N(C(=O)Nc2cnccn2)[C@H]2CCN3C2)cn1 [Example 399] |

| Compound | Tryp AVG EC1.5 (μM) [1] | Emax (Trp mass spectrometry assay) | Tryp AVG EC1.5 (μM) [2] | Emax (Trp peptide substrate) | Tryp AVG EC1.5 (μM) [3] |
| --- | --- | --- | --- | --- | --- |
| O=C(Nc1cccnc1)N1c2nc(N3CCCC(C(F)(F)F)C3)ccc2N2CCC[C@H]1C2 (some centres unmarked) [Example 288] |  |  | A (EC1.5<1 μM) | ≥ 150% |  |

From patent US9765075B2, “Substituted bridged urea analogs as sirtuin modulators” (GLAXOSMITHKLINE LLC, priority 2013, dated 2017)
